Measured values: patent US20160095865A1, “APPLICATION OF ENROFLOXACIN SALT IN PREPARATION OF ORAL PREPARATION FOR PIGS” (GUANGZHOU INSIGHTER BIOTECHNOLOGY CO., LTD., priority 2013, published 2016)
Where a name gives a salt, the structure may show the parent alone.

Experiments:
[1] = test system: duroc-landrace-yorkshire hybrid pigs; assay: Influence of enrofloxacin base, sodium salt and hydrochloride on palatability of pig feed (Embodiment 2); format: in vivo; conditions: compared with blank control group
Procedure: Enrofloxacin base, enrofloxacin sodium and enrofloxacin hydrochloride were respectively added in feed in each group. All the test pigs were synchronously fasted for 12 h before testing. The test pigs in each group were respectively subjected to free feed intake of feed containing enrofloxacin in different forms after the 12 h fast. […] Feed consumption of different test groups was subjected to statistics and the influence of different forms of the enrofloxacin added in the feed on the feed intake of the pigs was evaluated. The pure feed which was not added with the enrofloxacin or the salt thereof was taken as control.

sensitive bacteria = conditions: overwhelming majority of strains of sensitive bacteria; cited from earlier work
[2] = test system: pathogenic escherichia coli SGD strain; assay: Protection against escherichia coli artificial (challenge) infection in weaned piglets (Embodiment 9); format: in vivo, pigs; conditions: for Death rate: challenged control 60; for Incidence rate (%, calculated by diarrhea): challenged control 100
Procedure: The 33-day-old pigs were intramuscularly injected with pathogenic escherichia coli, the diarrhea and deaths of the pigs were observed, continuous observation was performed for one week, the onset and deaths were subjected to statistics, and the protection effects of the enrofloxacin in different forms against the pathogenic escherichia coli in the artificial infection were compared. Pure feed which was not added with the enrofloxacin in any form was taken as a control group, wherein one portion of pigs in the control group were intramuscularly injected with the pathogenic escherichia coli and was taken as the control group without administration but with challenge (the fifth group), and the remainder were not intramuscularly injected with the pathogenic escherichia coli and was taken as the control group without administration and without challenge (the sixth group).

[3] = Pharmacokinetic research in pigs, plasma concentration by HPLC (Embodiment 8); format: in vivo; conditions: piglets
Procedure: Jugular venous blood collection was performed at 30 min, 1 h, 2 h, 4 h, 8 h, 12 h and 24 h after administration. Plasma was separated, the concentration of the enrofloxacin in the plasma in the different test pigs after administration was determined by high-performance liquid chromatography respectively, and whether the difference in the concentration of the enrofloxacin in the plasma in each test group after administration was significant or not and whether the elimination rule of the enrofloxacin in blood was consistent or not was subjected to statistical analysis.

[4] = 100 ppm equivalent fed twice daily through a gastric tube according to feed intake, challenge 2.0 ×10^7 CFU/pig
[5] = 100 ppm in feed, challenge 2.0 ×10^7 CFU/pig i.m., one week

In the case of `CCN1CCN(c2cc3c(cc2F)c(=O)c(C(=O)O)cn3C2CC2)CC1` [enrofloxacin base, enrofloxacin], the “Decline in feed intake” value ([1]; 5 ppm in feed) is reported as 47.2%, the “Decline in feed intake” value ([1]; 25 ppm in feed) is reported as 74.2% and the “Decline in feed intake” value ([1]; 100 ppm in feed) is reported as 93.3%. The MIC (sensitive bacteria) was “lower than 1 ug/ml”, the Death rate [2, 4] was 0% and the “Incidence rate (%, calculated by diarrhea)” value [2, 4] was 0%.

With `CCN1CCN(c2cc3c(cc2F)c(=O)c(C(=O)[O-])cn3C2CC2)CC1.CCN1CCN(c2cc3c(cc2F)c(=O)c(C(=O)[O-])cn3C2CC2)CC1.[Cu+2]` [enrofloxacin copper] the “Plasma concentration (total of enrofloxacin and ciprofloxacin)” value (“Plasma concentration” for short) ([3]; 30 min after 10 mg/kg body weight by gastric tube) was 1.417 ± 0.169^A ug/ml, the “Plasma concentration” value ([3]; 1 h after 10 mg/kg body weight by gastric tube) was 2.121 ± 0.198^B ug/ml and the “Plasma concentration” value ([3]; 2 h after 10 mg/kg body weight by gastric tube) was 5.187 ± 0.558^C ug/ml. The “Plasma concentration” value ([3]; 4 h after 10 mg/kg body weight by gastric tube) was 5.465 ± 0.529^D ug/ml, the “Plasma concentration” value ([3]; 8 h after 10 mg/kg body weight by gastric tube) was 2.986 ± 0.234^E ug/ml and the “Plasma concentration” value ([3]; 12 h after 10 mg/kg body weight by gastric tube) was 1.785 ± 0.215^F ug/ml. For the same compound, the “Plasma concentration” value ([3]; 24 h after 10 mg/kg body weight by gastric tube) was 0.294 ± 0.044^G ug/ml, the Death rate [2, 5] was 0% and the “Incidence rate (%, calculated by diarrhea)” value [2, 5] was 0%.

For `CCN1CCN(c2cc3c(cc2F)c(=O)c(C(=O)O)cn3C2CC2)CC1` [enrofloxacin hydrochloride], the “Decline in feed intake” value ([1]; 5 ppm in feed, hydrochloride) was 49.5%, the “Decline in feed intake” value ([1]; 25 ppm in feed, hydrochloride) was 73.4% and the “Decline in feed intake” value ([1]; 100 ppm in feed, hydrochloride) was 93.7%.

With `CCN1CCN(c2cc3c(cc2F)c(=O)c(C(=O)[O-])cn3C2CC2)CC1.[Ag+]` [enrofloxacin silver] the Death rate [2, 5] was 0% and the “Incidence rate (%, calculated by diarrhea)” value [2, 5] was 0%.

For `CCN1CCN(c2cc3c(cc2F)c(=O)c(C(=O)O)cn3C2CC2)CC1` [enrofloxacin sodium], the “Decline in feed intake” value ([1]; 5 ppm in feed) was 50.8%, the “Decline in feed intake” value ([1]; 25 ppm in feed) was 73.1% and the “Decline in feed intake” value ([1]; 100 ppm in feed) was 94.1%.

With `CCN1CCN(c2cc3c(cc2F)c(=O)c(C(=O)[O-])cn3C2CC2)CC1.CCN1CCN(c2cc3c(cc2F)c(=O)c(C(=O)[O-])cn3C2CC2)CC1.[Zn+2]` [enrofloxacin zinc] the Death rate [2, 5] was 0% and the “Incidence rate (%, calculated by diarrhea)” value [2, 5] was 0%.
